# Where two headings read alike, the source gives them in different places.
# Experiments:
# [1] = tested on: human HT29 colon tumor cell line; assay: Growth inhibitory activity / in vitro cytotoxicity against human HT29 colon tumor cells
# From the text: These toxicities include gastrointestinal, renal and hematological disturbances which results from COX-1 inhibition as well as cardiovascular toxicity which likely results from COX-2 inhibition.
# [2] = Toxicity in mice, maximum tolerated dose; assay type: in vivo
# Description: FIGS. 5A and 5B show the reduced toxicity of SRI 21009 in mice relative to sulindac. Following a once a day dosing schedule, the maximum tolerated dose of sulindac is estimated to be 50 mg/kg in comparison to 300 mg/kg for SRI 21009.
# [3] = Oral bioavailability, plasma levels after oral administration; assay type: in vivo
# [4] = tested on: panel of histologically diverse tumor cell types; assay: Growth inhibitory activity against a panel of tumor cell types; assay type: cell-based; settings: FIG. 2
# COX-1 = COX-1 (Homo sapiens, UniProt P23219); assay: COX-1 inhibitory activity; assay type: biochemical
# COX-2 = molecular target: T1, COX-2 (Homo sapiens, UniProt P35354); assay: COX-2 inhibitory activity; assay type: biochemical
# T1 sequence (P35354 18-604): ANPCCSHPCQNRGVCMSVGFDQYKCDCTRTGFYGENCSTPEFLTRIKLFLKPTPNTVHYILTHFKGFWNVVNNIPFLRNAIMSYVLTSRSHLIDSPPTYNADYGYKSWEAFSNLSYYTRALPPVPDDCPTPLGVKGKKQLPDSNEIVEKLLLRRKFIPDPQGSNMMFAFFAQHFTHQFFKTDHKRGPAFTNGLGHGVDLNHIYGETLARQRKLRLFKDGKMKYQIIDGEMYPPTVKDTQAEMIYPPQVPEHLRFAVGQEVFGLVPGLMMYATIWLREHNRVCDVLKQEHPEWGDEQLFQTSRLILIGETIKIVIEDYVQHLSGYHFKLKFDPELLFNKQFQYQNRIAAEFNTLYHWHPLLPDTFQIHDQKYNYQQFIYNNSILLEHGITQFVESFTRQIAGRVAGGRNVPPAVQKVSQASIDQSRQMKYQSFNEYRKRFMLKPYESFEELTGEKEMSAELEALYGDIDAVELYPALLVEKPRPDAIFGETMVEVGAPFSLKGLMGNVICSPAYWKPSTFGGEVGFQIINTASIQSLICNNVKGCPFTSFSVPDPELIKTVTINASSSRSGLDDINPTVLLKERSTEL
# [5] = tested on: human colon HT29 colon tumor cells; assay: Antitumor activity in athymic nude mice implanted with HT29 tumor cells; assay type: in vivo; settings: 300 mg/kg, once a day dosing schedule, HT29 xenograft
# tumor cells = assay: Cytostatic and cytotoxic activity; assay type: cell-based; settings: FIGS. 3A and 3B, compared with sulindac sulfide
# From the text: Cytotoxic activity is defined as the ability the treatment to reduce cell number below the number when treatment was initiated and is an indicator of chemotherapeutic efficacy. Cytostasis is defined as the ability of the treatment to reduce cell number relative to untreated cells and is an indicator of chemopreventive efficacy.
# [6] = Homo sapiens, HT-29, read-out: IC50 value, growth inhibitory activity
# [7] = read-out: IC50 value, growth inhibitory activity, human HT29 colon tumor cell line, Table B upper part
# [8] = read-out: IC50, growth inhibitory activity, human HT29 colon tumor cell line, Table B lower part
# [9] = Homo sapiens, HT-29, read-out: cytotoxity IC50 values (50% inhibitory concentration)
# Chain of COX-1 (P23219 24-599): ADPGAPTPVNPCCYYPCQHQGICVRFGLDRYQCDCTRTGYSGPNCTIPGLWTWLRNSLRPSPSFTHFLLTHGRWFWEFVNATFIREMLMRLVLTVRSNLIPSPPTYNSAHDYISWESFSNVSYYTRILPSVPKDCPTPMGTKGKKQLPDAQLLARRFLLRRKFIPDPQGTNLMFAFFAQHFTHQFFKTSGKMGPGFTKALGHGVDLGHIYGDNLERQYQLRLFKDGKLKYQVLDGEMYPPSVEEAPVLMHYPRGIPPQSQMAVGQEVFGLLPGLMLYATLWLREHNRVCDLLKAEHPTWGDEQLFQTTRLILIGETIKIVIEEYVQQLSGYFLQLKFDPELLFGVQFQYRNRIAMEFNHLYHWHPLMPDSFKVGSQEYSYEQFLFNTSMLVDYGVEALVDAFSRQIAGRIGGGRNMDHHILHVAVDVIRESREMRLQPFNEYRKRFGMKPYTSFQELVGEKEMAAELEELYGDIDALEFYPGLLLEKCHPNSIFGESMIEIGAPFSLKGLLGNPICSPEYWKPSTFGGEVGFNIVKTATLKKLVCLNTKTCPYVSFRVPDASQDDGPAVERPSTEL
compound,measurement,setting,value
"CC1=C(CC(=O)NCCc2cccnc2)c2cc(F)ccc2C1=Cc1ccc([S+](C)[O-])cc1 (centres unmarked) [SRI 21162, 5-Fluoro-2-methyl-1-[[4-(methylsulfinyl)phenyl]methylene]-N-[2-(3-pyridinyl)ethyl]-1H-indene-3-acetamide]",IC50,[1]; [6],99.8 µM
"CC1=C(CC(=O)NCCN)c2cc(F)ccc2C1=Cc1ccc([S+](C)[O-])cc1 (centres unmarked) [SRI 21185, N-(2-Aminoethyl)-5-fluoro-2-methyl-1-[[4-(methylsulfinyl)phenyl]methylene]-1H-indene-3-acetamide]",IC50,[1]; [6],85.2 µM
"CC1=C(CC(=O)NCCN2CCCCC2)c2cc(F)ccc2C1=Cc1ccc([S+](C)[O-])cc1 (centres unmarked) [SRI 21114, 5-Fluoro-2-methyl-1-[[4-(methylsulfinyl)phenyl]methylene]-N-[2-(1-piperidinyl)ethyl]-1H-indene-3-acetamide]",IC50,[1]; [6],19.7 µM
"CC1=C(CC(=O)O)c2cc(F)ccc2/C1=C\c1ccc([S+](C)[O-])cc1 (centres unmarked) [Sulindac sulfoxide, Sulindac]",IC50,[1]; [7],450 µM
same,IC50,"[1]; read-out: cytotoxity IC50 values (50% inhibitory concentration), human colon tumor cells, in vitro",479 µM
same,maximum tolerated dose,"[2]; mice, once a day dosing schedule",~50 mg/kg
"CC1=C(CC(=O)NCC2CCCN2C)c2cc(F)ccc2C1=Cc1ccc([S+](C)[O-])cc1 (centres unmarked) [SRI 21008, 5-Fluoro-2-methyl-N-[(1-methyl-2-pyrrolidinyl)methyl]-1-[[4-(methylsulfinyl)phenyl]methylene]-1H-indene-3-acetamide]",IC50,[1]; [6],18.7 µM
"CC1=C(CC(=O)Nc2ccc(N(C)C)cc2)c2cc(F)ccc2/C1=C\c1ccc([S+](C)[O-])cc1 (centres unmarked) [SRI 21590, N-[[4-(Dimethylamino)phenyl]-(Z)-5-fluoro-2-methyl-3-[[4-(methylsulfinyl)phenyl]methylene]]-1H-indene-3-acetamide]",IC50,[1]; [8],230 µM
CC1=C(CC(=O)NCCc2c[nH]cn2)c2cc(F)ccc2C1=Cc1ccc([S+](C)[O-])cc1 (centres unmarked) [SRI 21229],IC50,[1]; [7],32.6 µM
"CC1=C(CC(=O)NCCN2CCNCC2)c2cc(F)ccc2C1=Cc1ccc([S+](C)[O-])cc1 (centres unmarked) [SRI 21113, 5-Fluoro-2-methyl-1-[[4-(methylsulfinyl)phenyl]methylene]-N-[2-(1-piperazinyl)ethyl]-1H-indene-3-acetamide]",IC50,[1]; [6],76.9 µM
"CC1=C(CC(=O)NCCN2CCCC2)c2cc(F)ccc2C1=Cc1ccc([S+](C)[O-])cc1 (centres unmarked) [SRI 21169, 5-Fluoro-2-methyl-1-[[4-(methylsulfinyl)phenyl]methylene]-N-[2-(1-pyrrolidinyl)ethyl]-1H-indene-3-acetamide]",IC50,[1]; [6],17.2 µM
"CSc1ccc(/C=C2/C(C)=C(CC(=O)NCCN(C)C)c3cc(F)ccc32)cc1 [SRI 21009, N-[2-(Dimethylamino)ethyl]-5-fluoro-2-methyl-1-[[4-(methylsulfide)phenyl]methylene]-1H-indene-3-acetamide]",IC50,[1]; [6],1.47 µM
same,IC50,[1]; [9],1.47 µM
same,"sulindac sulfoxide, sulfone, or sulfide detected in the plasma",[3]; following SRI 21009 administration,Negligible amounts
same,achievable plasma levels,"[3]; oral administration, single dose of 200 mg/kg",exceeded the IC50 value for in vitro growth inhibition
same,growth inhibitory activity across tumor cell types,[4],enhanced sensitivity of tumor cells derived from colorectal tumors compared with other tumor types
same,MTD,"[2]; mouse, in vivo",~300 mg/kg
same,IC50,COX-1,1480 µM
same,IC50,COX-2,164 µM
same,antitumor activity,[5],as effective as sulindac at 50 mg/kg
"CC1=C(CC(=O)NCCN2CCOCC2)c2cc(F)ccc2C1=Cc1ccc([S+](C)[O-])cc1 (centres unmarked) [SRI 21178, 5-Fluoro-2-methyl-1-[[4-(methylsulfinyl)phenyl]methylene]-N-[2-(4-morpholinyl)ethyl]-1H-indene-3-acetamide]",IC50,[1]; [6],114 µM
"CSc1ccc(/C=C2/C(C)=C(CC(=O)Nc3ccc(N(C)C)cc3)c3cc(F)ccc32)cc1 [SRI 21623, N-[[4-(Dimethylamino)phenyl]-(Z)-5-fluoro-2-methyl-3-[[4-(methylthio)phenyl]methylene]]-1H-indene-3-acetamide]",solubility during the bioassay,[1],solubility issues during the bioassay
same,IC50,[1]; [8],> 100 µM
"CC1=C(CC(=O)NCCN(C)C)c2cc(F)ccc2C1=Cc1ccc([S+](C)[O-])cc1 (centres unmarked) [SRI 21004, N-[2-(Dimethylamino)ethyl]-5-fluoro-2-methyl-1-[[4-(methylsulfinyl)phenyl]methylene]-1H-indene-3-acetamide]",IC50,[1]; [6],25.1 µM
same,IC50,[1]; [9],29.2 µM
same,cytotoxic activity (reduce cell number below the number when treatment was initiated),tumor cells,greater potential for chemotherapeutic efficacy compared with sulindac sulfide
"CSc1ccc(/C=C2/C(C)=C(CC(=O)NCc3ccc(N(C)C)cc3)c3cc(F)ccc32)cc1 [SRI 21540, N-[[4-(Dimethylamino)phenyl]methyl]-(Z)-5-fluoro-2-methyl-3-[[4-(methylthio)phenyl]methylene]-1H-indene-3-acetamide]",IC50,[1]; [8],3.22 µM
"N,2-Dimethyl-N-[2-(dimethylamino)ethyl]-5-fluoro-1-[[4-ethylsulfinyl)phenyl]methylene]-1H-indene-3-acetamide [SRI 21179]",IC50,[1]; [7],19.8 µM
CNCCN(C)C(=O)CC1=C(C)/C(=C/c2ccc(SC)cc2)c2ccc(F)cc21 [SRI 21596],IC50,[1]; [8],1.62 µM
CC1=C(CC(=O)NCCN(C)C)c2cc(F)ccc2/C1=C\c1ccc(S(C)(=O)=O)cc1 [SRI 21487],IC50,[1]; [8],10 µM
"CSc1ccc(/C=C2/C(C)=C(CC(=O)O)c3cc(F)ccc32)cc1 [Sulindac sulfide, reference compound]",IC50,[1]; [6],45.2 µM
same,IC50,[1]; [9],71.2 µM
"CC1=C(CC(=O)N2CCN(C)CC2)c2cc(F)ccc2C1=Cc1ccc([S+](C)[O-])cc1 (centres unmarked) [SRI 21387, Ethanone, 2-[5-fluoro-2-methyl-1-[[4-(methylsulfinyl)phenyl]methylene]-1H-inden-3-yl]-1-(4-methylpiperazinyl)]",IC50,[1]; [8],71 µM
"CC1=C(CC(=O)NCc2ccc(N(C)C)cc2)c2cc(F)ccc2C1=Cc1ccc([S+](C)[O-])cc1 (centres unmarked) [SRI 21275, N-[[4-(Dimethylamino)phenyl]methyl]-5-fluoro-2-methyl-1-[[4-(methylsulfinyl)phenyl]methylene]-1H-indene-3-acetamide]",IC50,[1]; [6],6.3 µM
CCN(CC)CCNC(=O)CC1=C(C)C(=Cc2ccc([S+](C)[O-])cc2)c2ccc(F)cc21 (centres unmarked) [SRI 21276],IC50,[1]; [7],18.2 µM
